In patent publication US20020107283A1, “Carbamate compounds for use in preventing or treating neuropathic pain and cluster and migraine headache-associated pain” (priority 2000, published 2002):

Columns and labels:
[1] = tested on: L5 and L6 spinal nerve ligated rats, mechanical allodynia; assay: Antiallodynic activity, electronic Von Frey probes, L5 and L6 spinal nerve ligation; assay type: in vivo, Rj: Wistar (Han) rats
Procedure: Pathogen-free, male Rj: Wistar (Han) rats (300-380 g) were purchased from Elevage Janvier, 53940 Le Genest-Saint-Isle, France. The animals were maintained on a 12-h light/dark cycle (lights on from 7:00-19:00) in a controlled ambient temperature of 21±1° C., and relative humidity maintained at 40-70%. The animals had free access to food (UAR 113) and tap water until tested.
Rats were anesthetized (sodium pentobarbital 40 mg/kg i.p.). A ligature was tied tightly around the left L5 and L6 spinal nerves. The rats received an i.m. injection of 50 000 IU Penicillin (Diamant®) and were allowed to recover. This procedure results in mechanical allodynia in the left hind paw. Two weeks after the surgery, when the allodynic state was fully developed, rats were submitted consecutively to tactile stimulation of both the non-lesioned and the lesioned hindpaws.
The animals were placed on an elevated grid floor in Plexiglass boxes (19×11.5×13 cm). The tip of an electronic Von Frey probe (Bioseb, Model 1610) was then applied with increasing pressure to the lesioned and non-lesioned hindpaws and the force required to induce paw-withdrawal was automatically recorded. Prior to receiving drug treatment all animals were submitted to tactile stimulation and assigned to treatment groups matched on the basis of their pain response. This procedure was carried out 3 times for each paw and the mean paw force was calculated to provide basic scores per animal. Data were expressed as percent change (means ±SEM) of effectiveness from the controls. Statistical analysis was done using non-paired and paired Student's t tests.
As summarized in Table 2 below, an enantiomer of Formula (Ib) substantially free of other enantiomers was evaluated at the doses 10, 30 and 100 mg/kg (n=8), administered p.o. in a volume of 5 mL/kg. Morphine (128 mg/kg) was used as reference substance. Control animals received a p.o. administration of vehicle. The test was performed blind 30, 60 and 90 minutes after drug administration.

[2] = tested on: Chung model of neuropathic pain (L5 spinal nerve ligated rats, mechanical allodynia); assay: Antiallodynic activity in the Chung model, manually applied von Frey probes; assay type: in vivo, Sprague-Dawley rats
From the text: The procedure used to test the antiallodynic activity of an enantiomer of Formula (I) substantially free of other enantiomers was the procedure for the measurement of allodynia found in the Chung Model (Kim S. H. and Chung J. M., An Experimental Model for Peripheral Neuropathy Produced by Segmental Spinal Nerve Ligation in the Rat, Pain, 1992, 50, 355-363).
Pathogen-free, male albino Sprague-Dawley rats, 200 g, were purchased from Harlan Industries (Indianapolis, Ind.) and maintained on a 12-h light/dark cycle (lights on at 06:00 h) in a climate-controlled room with food and water available ad libitum up to the time of the testing and food withdrawn 18 hr prior to testing.
The rats were anesthetized with isoflurane inhalant anesthesia. The left lumbar spinal nerve at the level of L5 was tightly ligated (4-0 silk suture) distal to the dorsal root ganglion and prior to entrance into the sciatic nerve, as described by Kim and Chung. The incisions were closed and the rats were allowed to recover under conditions described above. This procedure results in mechanical allodynia in the left hind paw. The sham operation, when performed, consisted of a similar surgical procedure lacking only the final ligation of the spinal nerve. Mechanical (tactile) allodynia was assessed by recording the pressure at which the affected paw (ipsilateral to the site of nerve injury) was withdrawn from graded stimuli (von Frey filaments ranging from 4.0 to 148.1 mN) applied by hand perpendicularly to the plantar surface of the paw (between the footpads) through wire-mesh observation cages. A paw withdrawal threshold (PWT) was determined by sequentially increasing and decreasing the stimulus strength and analyzing withdrawal data using a Dixon non-parametric test, as described by Chaplan et al (Chaplan S. R., Bach F. W., Pogrel J. W., Chung J. M. and Yaksh T. L., Quantitative Assessment of Tactile Allodynia in the Rat Paw, J Neurosci Meth, 1994, 53, 55-63). Normal rats, sham operated rats, and the contralateral paw of L5 ligated rats withstand at least 148.1 mN (equivalent to 15 g) of pressure without responding. Spinal nerve ligated rats respond to as little as 4.0 mN (equivalent to 0.41 g) of pressure on the affected paw. […] The PWT was used to calculate the % maximal possible effect (% MPE) according to the formula:
% MPE=100×(PWT−CT)/(CO−CT).
As summarized in Table 1 below, the enantiomer of Formula (Ib) substantially free of other enantiomers was screened for antiallodynic activity in the Chung model of neuropathic pain at a dose of 30 mg/kg, po, with responses being measured at 0.5, 1, 2 and 4 hr post dosing.

SMILES | % Change (paw-withdrawal force from controls) ([1]; 128 mg/Kg morphine, positive control) [%] | % Maximum Possible Effect ([2]; 30 mg/kg, po, paw withdrawal threshold, activity seen at 30 min post-dosing, n=5) [%] | time course of antiallodynic activity ([2]; 30 mg/kg, po, responses measured at 0.5, 1, 2 and 4 hr post dosing) | dose dependence of antiallodynic responses ([2]; about 5 mg/kg, p.o. to about 45 mg/kg, p.o., 30 min) | time of peak antiallodynic effect ([2]; after oral dosing) [min] | maximum % MPE ([2]; highest dose tested (about 45 mg/kg, p.o.), 30 min after oral dosing, N=5) [%] | % Change (paw-withdrawal force from controls) ([1]; 10 mg/kg p.o., ligatured paw, 60 minute measurement, n=8, p ns) [%] | % Change (paw-withdrawal force from controls) ([1]; 30 mg/kg p.o., ligatured paw, 60 minute measurement, n=8, p <0.05) [%] | % Change (paw-withdrawal force from controls) ([1]; 100 mg/kg p.o., ligatured paw, 60 minute measurement, n=8, p <0.05) [%] | effect on the non-ligatured paw ([1]; 10, 30 and 100 mg/kg p.o., 60 minute measurement) | anti-allodynic effect at 90 min post-dosing ([1]; p.o., 90 min post-dosing)
CN1CC[C@]23c4c5ccc(O)c4O[C@H]2[C@@H](O)C=C[C@H]3[C@H]1C5 [morphine, Morphine, reference compound] | 38 |  |  |  |  |  |  |  |  |  | 
NC(=O)OC[C@@H](O)c1ccccc1Cl [enantiomer of Formula (Ib)] |  | 51 | exhibited antiallodynic activity at 30 min. post-dosing, and responses returned to baseline by one hour | dose-dependent | 30 | 60 | 65 | 80 | 72 | without affecting the non-ligatured paw | no longer present by 90 min post-dosing
